Here are results for three compounds from patent US8969530B2, “Anti-clathrin heavy chain monoclonal antibody for inhibition of tumor angiogenesis and growth and application thereof” (Academia Sinica, priority 2011, dated 2015).

Experiment [1] relates to HIF-1α protein in MIA PaCa-2 cells. Nature of the experiment: HIF-1α protein level and stability in CHC knockdown cells (Western blot). It is filed as cell-based, human. To be noted: MG132 10 μM, DFX 100 μM. Here is the method: Cells were extracted with RIPA buffer and the supernatants were immunoprecipitated using either anti-CHC antibody, Pa65-2, mAb X-22 (Affinity), or anti-HIF-1α antibody (BD), then analyzed by immunoblotting. The signals were developed using enhanced chemiluminescence reagents (ECL) (Thermo).
For hypoxia experiments, MIA PaCa-2 cells were grown in a Ruskinn Hypoxic Chamber (APM-50D, 18 Astec, Japan) and treated with either 1% O2, 5% CO2 for 18 h, or given DFX, deferoxamine (100 μM, Sigma) treatment for 5 or 16 h. For proteasome inhibitor treatment, MG132 (10 μM, Sigma) was added to culture medium then incubated 5 to 17 h.
In general terms: A western blot detects proteins with antibodies after separation by electrophoresis.

A further experiment has as its system pancreatic cancer. The note with it: cited from earlier work.

Where a SMILES comes first, the peptide text is derived from it. The star is where a group is joined. Cbz = O=C(OCc1ccccc1)*

`CC(C)C[C@@H](C=O)NC(=O)[C@H](CC(C)C)NC(=O)[C@H](CC(C)C)NC(=O)OCc1ccccc1` [MG132] (Cbz-Leu-Leu-Leu-aldehyde): in experiment [1], the “decreased protein level of HIF-1α in CHC knockdown cells” value is listed as “rescued”. Consider `Nc1ccn([C@@H]2O[C@H](CO)[C@@H](O)C2(F)F)c(=O)n1` [gemcitabine], for which, in the experiment with pancreatic cancer (most commonly used medicine), the “effectiveness in treating pancreatic cancer” value is given as “only moderately effective”. Regarding bevacizumab, the “improvement in overall survival of pancreatic cancer patients” value with pancreatic cancer (clinical trial, in combination with small molecule drugs) is “no significant improvement”.
